Test results published in patent EP4410284A1, “COMPOUND AND METHOD FOR THE TREATMENT OF ZELLWEGER SPECTRUM DISORDER” (Apteeus, priority 2023, dated 2024).
pEC50: −log10 of the molar value. Like-named read-outs stand apart in the source and are kept apart here.

Tests used:
PEX405 cells [1] = assay: Catalase import immunofluorescence, high-content screening (% importing cells); assay type: cell-based, human; details: for Concentration (lower dose leading to the maximum effect) / Importing cells (%): PEX405 (PEX1); for Importing cells (%): at the lower dose leading to the maximum effect (see E12); for % Importing cells: PEX405 cells, 3 days
Description: (§4) The cytotoxicity was assessed in parallel using a double nucleus staining with Hoechst 33342 and Propidium Iodide (PI).

PEX607 = assay: Catalase import immunofluorescence (% importing cells); assay type: cell-based, human; details: PEX607 (PEX6); for Importing cells (%): at the lower dose leading to the maximum effect (see E18)
Description: (§1) Primary fibroblasts were seeded at 500-700 cells per well in 384-well plates and grown at 37°C overnight. Cells were treated with test compounds or 0.1% DMSO for 3 days. After 3 days and a wash with PBS, cells were fixed with 4% paraformaldehyde (Electron Microscopy Sciences) in PBS for 20 minutes. After 3 washes with PBS, the cells were permeabilized and blocked with 0.3% Triton X-100, 1% BSA in PBS for 30 minutes at room temperature followed by 3 washes with 1% BSA in PBS. The cells were incubated with a rabbit Catalase polyclonal antibody (#12980 Cell signaling) overnight at 4°C. Following 3 washes with PBS containing 0.1% Tween-20, the cells were incubated for 1 h at room temperature with a conjugated goat anti-rabbit secondary antibody Alexa Fluor 647 (Ab150083-Abcam). The cells were then washed 3 times with PBS and Hoechst 33342 (H3570-ThermoFisher Scientific) + HCS Cellmask Blue (H32720 - ThermoFisher Scientific) staining was performed at 0.1 µg/ml and 0.4 µg/mL respectively for 30 minutes at room temperature. The cells were finally washed 3 times with PBS and fluorescent images were acquired using the INCell Analyzer 6000 imaging platform (GE Healthcare Life Sciences).
(§2) Images analysis was done using Columbus analysis software (PerkinElmer). DAPI channel was used to find nuclei (Hoechst 33342) and cytoplasm (HCS CellMask Blue) and border objects were removed. Cy5 channel (AlexaFluor 647) was used to find spots corresponding to peroxisomes which correctly import catalase. Cells were classified as importing or non-importing cells using a linear classifier method after training with images of wells containing Healthy cells and PEX1 deficient cells. The number of importing or non-importing cells was calculated. Finally, results were expressed as % of importing cells.
(§3) Among the HDAC inhibitors of example 2, 4 were tested on other cells which are PEX1, PEX6 or PEX26 deficient.

PEX506 = assay: as above; assay type: cell-based, human; details: PEX506 (PEX6); for Importing cells (%): at the lower dose leading to the maximum effect (see E16)
Description: as §1, §2, §3

PEX304 = assay: as above; assay type: cell-based, human; details: PEX304 (PEX1); for Importing cells (%): at the lower dose leading to the maximum effect (see E14)
Description: as §1, §2, §3

GM11335 = assay: as above; assay type: cell-based, human; details: GM11335 (PEX26); for Importing cells (%): at the lower dose leading to the maximum effect (see E20)
Description: as §1, §2, §3

GM 16865 = assay: as above; assay type: cell-based, human; details: GM 16865 (PEX26); for Importing cells (%): at the lower dose leading to the maximum effect (see E22)
Description: as §1, §2, §3

GM 17398 = assay: as above; assay type: cell-based, human; details: GM 17398 (PEX26 deficient); for Importing cells (%): at the lower dose leading to the maximum effect (see E24)
Description: as §1, §2, §3

GM16513 cells [2] = assay: Catalase import immunofluorescence, high-content screening (% importing cells); assay type: cell-based, human; details: GM16513 cells, 3 days; for Emax: read-out: Max Efficacy (% Importing cells)
Description: Images analysis was done using Columbus analysis software (PerkinElmer). DAPI channel was used to find nuclei (Hoechst 33342) and cytoplasm (HCS CellMask Blue) and border objects were removed. Cy5 channel (AlexaFluor 647) was used to find spots corresponding to peroxisomes which correctly import catalase. […] The number of importing or non-importing cells was calculated. Finally, results were expressed as % of importing cells.
as §4
The EC50 and maximum efficacy of these inhibitors were determined.

GM16513 cells [3] = assay type: cell-based; details: 3 days, PI positive cells (dead cells)
Description: (§5) Images were acquired using the EnSight multimode plate reader (PerkinElmer) and analysis was done using Columbus analysis software (PerkinElmer). […] Then the total number of cells and the % of dead cells was calculated.
(§6) All HDAC inhibitors were tested at 1.3 and 10 µM for 3 days on GM16513 and PEX405 cells.

PEX405 cells [4] = assay type: cell-based; details: 3 days, PI positive cells (dead cells)
Description: as §5, §6

[5] = Homo sapiens, 72 h, dose response with 6 concentrations

O=C(CCCCCCNC(=O)c1cnc(N(c2ccccc2)c2ccccc2)nc1)NO [Ricolinostat]
Concentration (lower dose leading to the maximum effect) (PEX405 cells [1]): 10 µM | Importing cells (%) (PEX405 cells [1]): 27% | % Importing cells (PEX405 cells [1]; 1.3 µM): 4% | % Importing cells (PEX405 cells [1]; 10 µM): 35% | Concentration (lower dose leading to the maximum effect) (PEX607): 3 µM | Importing cells (%) (PEX607): 40% | Concentration (lower dose leading to the maximum effect) (PEX506): 0.33 µM | Importing cells (%) (PEX506): 55% | Concentration (lower dose leading to the maximum effect) (PEX304): 10 µM | Importing cells (%) (PEX304): 5% | Concentration (lower dose leading to the maximum effect) (GM11335): 10 µM | Importing cells (%) (GM11335): 18% | Concentration (lower dose leading to the maximum effect) (GM 16865): 10 µM | Importing cells (%) (GM 16865): 20% | Concentration (lower dose leading to the maximum effect) (GM 17398): 30 µM | Importing cells (%) (GM 17398): 0% | % Importing cells (GM16513 cells [2]; 1.3 µM): 30% | % Importing cells (GM16513 cells [2]; 10 µM): 89% | pEC50 (GM16513 cells [2]; Homo sapiens, 72 h, dose response with 6 concentrations, read-out: EC50): 5.56 | Emax (GM16513 cells [2]; [5]): 96% | % PI+ cells (GM16513 cells [3]; 1.3 µM): 2% | % PI+ cells (GM16513 cells [3]; 10 µM): 5% | % PI+ cells (PEX405 cells [4]; 1.3 µM): 1% | % PI+ cells (PEX405 cells [4]; 10 µM): 1%

O=C(CCCCCCC(=O)Nc1ccccc1)NO [Vorinostat]
Concentration (lower dose leading to the maximum effect) (PEX405 cells [1]): 10 µM | Importing cells (%) (PEX405 cells [1]): 16% | % Importing cells (PEX405 cells [1]; 1.3 µM): 13% | % Importing cells (PEX405 cells [1]; 10 µM): 16% | Concentration (lower dose leading to the maximum effect) (PEX607): 3 µM | Importing cells (%) (PEX607): 48% | Concentration (lower dose leading to the maximum effect) (PEX506): 0.33 µM | Importing cells (%) (PEX506): 57% | Concentration (lower dose leading to the maximum effect) (PEX304): 3 µM | Importing cells (%) (PEX304): 8% | Concentration (lower dose leading to the maximum effect) (GM11335): 3 µM | Importing cells (%) (GM11335): 25% | Concentration (lower dose leading to the maximum effect) (GM 16865): 3 µM | Importing cells (%) (GM 16865): 27% | Concentration (lower dose leading to the maximum effect) (GM 17398): 30 µM | Importing cells (%) (GM 17398): 2% | % Importing cells (GM16513 cells [2]; 1.3 µM): 35% | % Importing cells (GM16513 cells [2]; 10 µM): 96% | Emax (GM16513 cells [2]; [5]): 90% | % PI+ cells (GM16513 cells [3]; 1.3 µM): 2% | % PI+ cells (GM16513 cells [3]; 10 µM): 9% | % PI+ cells (PEX405 cells [4]; 1.3 µM): 1% | % PI+ cells (PEX405 cells [4]; 10 µM): 9%
